The test system of series [1] is C6 cells. The series can be described thus: C6 cell spreading on PLYS or CNS myelin with protease inhibitors. It is filed as cell-based, rat. The following applies: for activity at 300 µM: C6, 2.5 h. The method, then:
Rat C6, mouse NIH 3T3 and B16 cells were cultured in Dulbecco's modified Eagle's medium (DMEM) supplemented with 10% fetal calf serum (FCS), usually to maximally 70-80% confluency. Cells were harvested with a short trypsin treatment (0.1% in Ca^2+ /Mg^2+ -free Hank's medium for 90 seconds) stopped by addition of FCS in excess, collected by centrifugation. Cells were resuspended in either DMEM/FCS or defined serum-free medium (MEM) and used for experiments. Dissociated rat CNS glial cells were prepared starting from optic nerves of 6-7 days old Lewis rats as described in Section 6.1.1, supra and plated into poly-D-lysine (PLYS) coated wells (100 mm^2, 100 μl medium) at a density of 20,000 cells per well. The culture medium was an enriched L15 medium with 5% rat serum, penicillin and streptomycin. C6, 3T3 and B16 cells were added to 2 day old cultures at a concentration of 30,000 cells per well, incubated for two hours and fixed with warm 4% formalin in phosphate buffer. Inhibitory oligodendrocytes were identified by double labelling using the specific antibodies O1 and O4 (see Section 6.1.3, supra).
(§1) Myelin from rat spinal cord (CNS) or sciatic nerve (PNS) purified on a discontinuous sucrose gradient as described in Section 6.1.5., was dried overnight onto PLYS coated wells (20 μg protein/well of 100 mm^2 surface). Unbound membranes were removed by three washes with Ca^2+ /Mg^2+ -free Hank's solution. Myelin coated wells were immediately used in substrate testing assays by the addition of 9,000 cells (C6, 3T3, or B16) per cm^2. Alternatively, we used extracted CNS myelin protein, or SDS-PAGE purified 35 and 250 kD inhibitory proteins reconstituted in liposomes (see Section 7.1.5, supra). Experiments were scored at different time points using a phase contrast microscope equipped with a photocamera. Quantifications were done using a surface integration program; three arbitrary fields were photographed for each well at a magnitude of 80×, at least 25 cells per picture were measured. Each point represents the mean of at least 3 wells±SEM. Results are expressed as μ^2 of projected cell surface, or as degree, which was calculated by subtracting from the projected surface value of a spreading cell, the surface value of a completely spheric cell.

Series [2] concerns C6 cells. The experiment in a line: C6 cell attachment and spreading on rat cerebellar frozen sections. It is filed as cell-based. The following applies: 1,10-phenanthroline 50, 100, 200 and 300 μM; cbz-tyr-tyr 100 μM. The method, then: Adult rat cerebellum frozen sections were prepared and dried on glass coverslips. 70,000 C6, 3T3, or B16 cells in 100 μl were added to each well containing slices previously rinsed with cold DMEM/FCS. Cultures were incubated for 2 days at 37° C. Cultures were then fixed and stained with cresyl violet. Three to four cerebellum slices were used per point per experiment, with each experiment being repeated at least 2 times.

The test system of series [3] is C6 cells. The series can be described thus: C6 cell infiltration into optic nerve explants. It counts as cell-based, rat. The following applies: nerves injected with 4 μl of 3 mM solution; medium 0.5 mM peptide; 14 days. As for the experimental part:
Optic nerve and sciatic nerve explants were prepared as described (Schwab and Thoenen, 1985, J. Neurosci. 5:2415-2423). Briefly, the nerves were rapidly dissected from about 8 week old male rats, cleaned from the meninges, 3 times frozen and thawed using liquid nitrogen, and placed under a teflon ring (diameter 13 mm, thickness 1 mm) sealed to a culture dish with silicon grease. Two chambers connected only by the explants were in this way obtained. 300,000 C6, 3T3 or B16 cells were plated in the inner chamber in DMEM/FCS and incubated for 5 to 20 days. The medium was changed every other day. Cultures were fixed overnight with 4% formalin. The nerve explants were mounted with Tissue-Tek, 10 to 15 μm sections were cut in a cryostate and collected on gelatine coated cover slips. After drying at room temperature overnight, the sections were stained in 0.75% cresyl violet, and evaluated. The infiltrated cells were counted for each 0.1 mm of the explants, starting from the tip where cells were added. Due to the 15 day incubation, the explants were often different in diameter. Therefore, only the central part of the nerves (0.25 mm) were considered, since only this part of the explants presented a good histological quality. Inhibition experiments were performed with nerve explants previously injected from both sides with 2 μl of 3 mM cbz-tyr-tyr or cbz-ala-phe solutions.

Series [4] relates to C6 cells. The experiment in a line: C6 cell spreading on CNS myelin protein liposomes, antibody and/or 1,10-phenanthroline. It is filed as cell-based, rat. The settings on record: 0.3 mM 1,10-phenanthroline. The method, then: Substrates were tested as described in Section 7.1.2 supra). Myelin fractions or liposomes in medium A were dried onto the wells of polylysine-coated Greiner dishes (Greiner, Murtingen, FRG). […] When substrates were tested in the presence of antibody, bound substrates were incubated in the presence of undiluted hybridoma supernatants or in the presence of 1:30 dilutions (in Hank's medium) of antisera. After 15 minutes at 37° C., four-fifths of the antibody-containing medium was removed and substituted with cell-containing medium. An analogous preincubation procedure was used in experiments aimed at testing HBO nonpermissiveness. 3T3 experiments were usually scored after a culture period of 1 hour, whereas SCG neurons were allowed to grow processes for 24 hours in culture. When 3T3 cells were preincubated with hybridoma supernatant, incubations were performed in gently agitated suspensions for a period of 15 minutes at room temperature. Cells were then sedimented, resuspended in culture medium, and added to substrate-adsorbed Greiner dish wells. 3T3 cells were added at a density of 30,000 cells per cm^2, and SCG neurons were added at a density of 20,000 cells per cm^2.
as §1, with “Myelin coated wells were immediately used in substrate testing assays by the addition of 9,000 cells (C6, 3T3, or B16) per cm^2. Alternatively, we used extracted CNS myelin protein, or SDS-PAGE purified 35 and 250 kD inhibitory proteins reconstituted in liposomes (see Section 7.1.5, supra).” left out, “Each point represents the mean of at least 3 wells±SEM.” left out

Series [5] concerns 3T3 cells. The series can be described thus: Treatment of CNS myelin with C6 plasma membranes, then 3T3 spreading and 3H-thymidine incorporation. It is filed as cell-based, mouse. The method, then: as §1
C6 cells grown to 80% confluency were washed twice with Hank's medium, and harvested in 20 ml 8.5% sucrose, 50 mM NaCl, 10 mM Tris buffer, pH 7.4, using a rubber policeman. After mechanical homogenization through a series of needles of decreasing size, a low purity plasma membrane fraction was obtained by centrifugation (5 minutes at 3000× g, 10 minutes at 8000× g, and then 2 hours at 100,000× g). A higher purity fraction was isolated by loading the material on a discontinuous sucrose gradient, containing 50 mM NaCl, 10 mM Tris, pH 7.4 (Quigley, 1976, J. Cell Biol. 71: 472-486). 20-40% sucrose interphase (C6 plasma membranes fraction) and 40-60% sucrose interphase (C6 mitochondrial fraction) were collected, washed in Hank's medium and resuspended in MEM.
CNS myelin coated PLYS wells were prepared as described in the previous section, but instead of being immediately tested as substrate, they were first incubated with 50 μl of C6 plasma membranes (containing 0.8 mg protein/ml MEM) at 37° for 30 minutes. Dishes were then rinsed twice with Hank's medium and immediately used as substrates for 3T3 cells. In some experiments, protease blockers were added to the membranes using 10 times concentrated solutions.
(In general: Incorporation of labelled thymidine or its analogues reports DNA synthesis.)

Read-outs that look alike come from different tables or passages of the source. Peptide text beside a SMILES is read from it. * marks the point of attachment. Cbz = O=C(OCc1ccccc1)*

Usually inhibition stands for the change of the read-out against control, counted positive when it falls. By IC50 is commonly meant the concentration that inhibits the measured activity by half.

In the case of `O=C(N[C@@H](Cc1ccc(O)cc1)C(=O)N[C@@H](Cc1ccc(O)cc1)C(=O)O)OCc1ccccc1` [cbz-tyr-tyr, carbobenzoxy-tryosine-tyrosine] (Cbz-Tyr-Tyr-OH), the “Spreading on: PLYS (% of control on PLYS)” value in series [1] (inhibitor 0.3 mM, 150 minutes) was 101 % of control on PLYS. Besides, in series [1] (inhibitor 0.3 mM, CNS myelin, 150 minutes), the “Spreading on: CNS (% of control on PLYS)” value is on record as 56 % of control on PLYS. Also, the “Inhibition on CNS (%)” value in series [1] (inhibitor 0.3 mM, PLYS value minus CNS myelin value) was 45%. The “distribution and behavior of C6 cells on white matter of cerebellar frozen sections” value in series [2] was “dramatically changed the distribution and behavior of C6 cells on the white matter areas”. The “C6 cell infiltration into optic nerve explants” value in series [3] was “inhibited C6 cell infiltration in all the 8 nerves examined”.
Regarding `c1cnc2c(c1)ccc1cccnc12` [1,10-phenanthroline], the “inhibition of C6 cell spreading on CNS myelin” value in series [1] is reported as “up to 67%”. The “concentrations exerting a general toxic effect on all substrates” value in series [1] (C6 cells, 3 hours, FIG. 22) is reported as “above 0.5 mM”. Also, the activity at 300 µM was 97% in series [1] (Rattus norvegicus, inhibitor 0.3 mM, 150 minutes, read-out: Spreading on: PLYS (% of control on PLYS)) and 30% in series [1] (Rattus norvegicus, inhibitor 0.3 mM, CNS myelin, 150 minutes, read-out: Spreading on: CNS (% of control on PLYS)). The same molecule registered an inhibition at 300 µM in series [1] (Rattus norvegicus, C6, inhibitor 0.3 mM, PLYS value minus CNS myelin value) of 67%. For the same molecule, in series [1] (Rattus norvegicus, C6 cells on CNS myelin, 3 hours (FIG. 22), read-out: Half maximal inhibition of C6 spreading on CNS myelin (IC50)), the IC50 stood at 200 µM. Besides, in series [1] (concentrations up to 0.5 mM), the “effect on C6 cell spreading on PLYS, glass and PNS myelin” value was “did not impair C6 cell spreading”. Besides, the “spreading value on: CNS lipos.” value in series [4] (substrate preadsorbed with the named antibody or none, 150 minutes) turned out to be 1.35 μm^2 10^3. Besides, the “spreading value on: PLYS” value in series [4] (with the named antibody or none, 150 minutes) is 2.49 μm^2 10^3. For the same molecule, the “% inhibition on CNS lipos.” value in series [4] (with the named antibody or none, relates to PLYS) was determined as 46%. In addition, the “3T3 Cell Spreading (%)” value in series [5] (3T3 on CNS myelin, alone or preincubated with C6 PM without/with the named inhibitor, 150 minutes, PLYS = 100) was determined as 17%. Besides, in series [5] (3T3 on CNS myelin, alone or preincubated with C6 PM without/with the named inhibitor, 20 hours, PLYS = 100), the “3H-Thymidine Incorporation (%)” value was determined as 50%. Besides, the “effect on the C6 plasma membrane effect (neutralization of CNS myelin inhibitory activity)” value in series [5] (blockers added to C6 plasma membranes) is listed as “completely blocked”. Besides, in series [2], the “distribution and behavior of C6 cells on white matter of cerebellar frozen sections” value is “dramatically changed the distribution and behavior of C6 cells on the white matter areas”.

For the origin of these results see patent US6025333A, “Treatment of CNS tumors with metalloprotease inhibitors” (Erziehungsdirektion of the Canton Zurich, priority 1995, dated 2000).
